Measurements from ChEMBL document CHEMBL1129309, “Asymmetric syntheses, opioid receptor affinities, and antinociceptive effects of 8-amino-5,9-methanobenzocyclooctenes, a new class of structural analogues of the morphine alkaloids” (J Med Chem, 1996).

Key:
Mus musculus [1] = species on record: Mus musculus; assay: Antinociceptive action was evaluated by mouse tail flick assay at a dose of 300 nmol on 5 mice; type: functional
[2] = target: Kappa-type opioid receptor (Cavia porcellus, UniProt P41144); assay: Activity was evaluated by inhibition of the binding of 1 nM [3H]U-69593 at Opioid receptor kappa 1 binding site
Chain of Kappa-type opioid receptor (P41144 whole entry): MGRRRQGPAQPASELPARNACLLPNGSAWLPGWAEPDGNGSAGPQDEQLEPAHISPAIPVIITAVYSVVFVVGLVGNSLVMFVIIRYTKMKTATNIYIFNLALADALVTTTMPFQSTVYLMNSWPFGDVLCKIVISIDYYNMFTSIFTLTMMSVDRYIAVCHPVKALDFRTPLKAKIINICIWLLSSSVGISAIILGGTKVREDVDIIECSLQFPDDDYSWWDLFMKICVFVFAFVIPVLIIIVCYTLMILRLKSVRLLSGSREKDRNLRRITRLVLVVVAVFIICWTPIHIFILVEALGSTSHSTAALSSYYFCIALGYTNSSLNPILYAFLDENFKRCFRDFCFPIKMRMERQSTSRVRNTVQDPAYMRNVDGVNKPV

Mu-type opioid receptor = Mu-type opioid receptor (Bos taurus, UniProt P79350); assay: Activity was evaluated by inhibition of the binding of 0.8 nM [3H]- DAMGO at Opioid receptor mu 1 binding site
Chain of Mu-type opioid receptor (P79350 whole entry): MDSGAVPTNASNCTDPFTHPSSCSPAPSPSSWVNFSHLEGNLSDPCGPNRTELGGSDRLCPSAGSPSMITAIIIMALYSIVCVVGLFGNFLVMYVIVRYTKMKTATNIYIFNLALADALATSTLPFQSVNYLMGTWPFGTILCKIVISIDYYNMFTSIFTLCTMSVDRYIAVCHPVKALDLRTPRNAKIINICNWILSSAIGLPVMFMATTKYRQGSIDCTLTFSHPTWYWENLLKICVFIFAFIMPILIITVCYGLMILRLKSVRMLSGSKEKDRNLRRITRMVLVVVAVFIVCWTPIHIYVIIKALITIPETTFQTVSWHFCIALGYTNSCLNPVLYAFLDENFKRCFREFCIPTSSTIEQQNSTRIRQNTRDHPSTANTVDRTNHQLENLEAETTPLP

Mus musculus [3] = species on record: Mus musculus; assay: Antinociceptive action was evaluated by mouse tail flick assay at a dose of 100 nmol in the presence of 3 nmol morphine on 5 mice; type: functional
Mus musculus [4] = species on record: Mus musculus; assay: Antinociceptive action was evaluated by mouse tail flick assay at a dose of 10 nmol on 5 mice; type: functional
Mus musculus [5] = species on record: Mus musculus; assay: Antinociceptive action was evaluated by mouse tail flick assay at a dose of 3 nmol on 9 mice; type: functional
Mus musculus [6] = species on record: Mus musculus; assay: Antinociceptive action was evaluated by mouse tail flick assay at a dose of 100 nmol in the presence of morphine on 9 mice; type: functional
Mus musculus [7] = species on record: Mus musculus; assay: Antinociceptive action was evaluated by mouse tail flick assay at a dose of 100 nmol on 10 mice; type: functional
Mus musculus [8] = assay: Percent activity against delta selective antinociception when given icv injection at a dose of 10 nmol 20 min before mouse tail flick test; type: functional
Mus musculus [9] = assay: Percent activity against delta selective antinociception when given icv injection at a dose of 10 nmol 20 min before the mouse tail flick test along with 4 nmol ICI 174864; type: functional

| SMILES | Ki [2] | Ki (Mu-type opioid receptor) | also measured |
| --- | --- | --- | --- |
| COCC12Cc3ccc(O)cc3C(C)(CCC1N)C2 (stereo in doubt; (+)3a) | 80.8 nM | 1.99 nM | Antinociception (Mus musculus [1]): 13%; Antinociception (Mus musculus [3]): 58% |
| CN1CNC2CCC3(C)CC2(Cc2ccc(O)cc23)C1 (stereo unspecified) | 17.2 nM | 27.7 nM |  |
| COCC12Cc3ccc(O)cc3[C@](C)(CCCN1C)C2 (single isomer, unassigned) | 795 nM |  |  |
| CN1CC[C@]23c4c5ccc(O)c4O[C@H]2[C@@H](O)C=C[C@H]3[C@H]1C5 [MORPHINE] |  |  | Antinociception (Mus musculus [4]): 100%; Antinociception (Mus musculus [5]): 65% |
| CN(C)C1CCC2(C)CC1(C)Cc1ccc(O)cc12 (single isomer, unassigned; (-)) | 409 nM | 297 nM |  |
| CN1CC23Cc4ccc(O)cc4C(C)(CCC12)C3 (single isomer, unassigned; (+)) | 215 nM | 179 nM |  |
| CC12CCC(N)C(CO)(Cc3ccc(O)cc31)C2 (single isomer, unassigned; (-)) | 109 nM | 40.6 nM |  |
| CNC1CCC2(C)CC1(CO)Cc1ccc(O)cc12 (single isomer, unassigned; (-)) | 650 nM | 380 nM |  |
| COCC12Cc3ccc(O)cc3C(C)(CCC1N(C)C)C2 (single isomer, unassigned; (+)) | 123 nM | 25.2 nM |  |
| CNC1CCC2(C)CC1(CO)Cc1ccc(O)cc12 (single isomer, unassigned; (+)) | 440 nM | 42 nM |  |
| CNCC12Cc3ccc(O)cc3C(C)(CCC1N)C2 (stereo unspecified) | 51.6 nM | 91.6 nM |  |
| CN(C)C1CCC2(C)CC1(CO)Cc1ccc(O)cc12 (single isomer, unassigned; (+)) | 2900 nM | 830 nM |  |
| COC[C@]12Cc3ccc(O)cc3[C@](C)(CCc3nnnn31)C2 | > 10000 nM |  |  |
| CN(C)C1CCC2(C)CC1(C)Cc1ccc(O)cc12 (single isomer, unassigned; (+)) | 5960 nM |  |  |
| CC12CCC(N)C(CO)(Cc3ccc(O)cc31)C2 (stereo in doubt; (+)-3b) | > 10000 nM | 41.2 nM |  |
| COCC12Cc3ccc(O)cc3C(C)(CCC1N(C)C)C2 (single isomer, unassigned; (-)) | 60.9 nM | 19.3 nM |  |
| COCC12Cc3ccc(O)cc3C(C)(CCC1N)C2 (stereo in doubt; (dl)-22) | 6.62 nM | 1.99 nM | Antinociception (Mus musculus [6]): 74% |
| COCC12Cc3ccc(O)cc3C(C)(CCC1N)C2 (stereo in doubt; (-)-3a) | 53.1 nM | 2.29 nM | Antinociception (Mus musculus [7]): 37% |
| CC1(C)SSC(C)(C)[C@@H](NC(=O)[C@@H](N)Cc2ccc(O)cc2)C(=O)NCC(=O)N[C@@H](Cc2ccccc2)C(=O)N[C@H]1C(=O)O |  |  | Activity (Mus musculus [8]): 55%; Activity (Mus musculus [9]): 5% |
| CN(C)C1CCC2(C)CC1(CO)Cc1ccc(O)cc12 (stereo in doubt; (-)-3c) | 3800 nM | 870 nM |  |
